The source of these data is ChEMBL document CHEMBL5154644, “Design, Synthesis, and Structure-Activity Relationship Optimization of Pyrazolopyrimidine Amide Inhibitors of Phosphoinositide 3-Kinase γ (PI3Kγ)” (J Med Chem, 2022).

A value given as a limit tells only on which side of the number the result lay.

T1 sequence (P48736 whole entry, canonical isoform): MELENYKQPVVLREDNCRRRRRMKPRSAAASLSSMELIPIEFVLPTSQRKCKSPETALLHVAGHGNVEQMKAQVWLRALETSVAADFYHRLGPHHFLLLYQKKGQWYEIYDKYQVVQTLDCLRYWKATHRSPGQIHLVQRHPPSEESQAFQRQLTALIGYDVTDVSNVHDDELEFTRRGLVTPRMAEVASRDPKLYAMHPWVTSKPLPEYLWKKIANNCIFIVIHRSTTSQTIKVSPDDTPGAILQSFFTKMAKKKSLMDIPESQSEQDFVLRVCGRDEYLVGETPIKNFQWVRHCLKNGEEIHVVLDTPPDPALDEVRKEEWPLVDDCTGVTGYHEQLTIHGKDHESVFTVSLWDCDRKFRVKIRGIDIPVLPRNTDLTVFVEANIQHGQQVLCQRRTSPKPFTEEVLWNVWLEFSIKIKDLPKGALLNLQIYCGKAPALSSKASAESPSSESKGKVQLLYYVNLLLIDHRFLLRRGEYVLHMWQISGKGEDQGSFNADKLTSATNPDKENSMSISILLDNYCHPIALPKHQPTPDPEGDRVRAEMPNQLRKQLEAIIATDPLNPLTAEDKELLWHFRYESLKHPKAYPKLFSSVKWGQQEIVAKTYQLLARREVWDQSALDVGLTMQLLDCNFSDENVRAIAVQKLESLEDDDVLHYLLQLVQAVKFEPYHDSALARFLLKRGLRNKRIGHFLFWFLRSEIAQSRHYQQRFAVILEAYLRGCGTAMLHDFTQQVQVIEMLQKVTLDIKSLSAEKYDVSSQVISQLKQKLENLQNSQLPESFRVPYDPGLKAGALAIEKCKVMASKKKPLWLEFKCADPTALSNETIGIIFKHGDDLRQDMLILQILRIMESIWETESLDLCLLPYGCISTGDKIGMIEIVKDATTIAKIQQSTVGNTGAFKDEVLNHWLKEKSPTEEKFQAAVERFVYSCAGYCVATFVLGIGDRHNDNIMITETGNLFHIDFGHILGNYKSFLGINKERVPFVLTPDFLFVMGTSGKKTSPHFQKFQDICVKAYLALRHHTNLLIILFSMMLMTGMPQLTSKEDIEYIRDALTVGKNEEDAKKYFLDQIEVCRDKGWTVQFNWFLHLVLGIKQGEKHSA

The first data set addresses T1, Phosphatidylinositol 4,5-bisphosphate 3-kinase catalytic subunit gamma isoform (Homo sapiens, UniProt P48736). Put plainly: Inhibition of PI3Kgamma (unknown origin) in […] stimulated human THP-1 cells assessed as reduction in Akt phosphorylation level at Ser473 residue preincubated for 60 mins followed by rhMCP-1 stimulation and measured after 2 mins by AlphaLisa assay. Format: cell-based.
Settings: not given
For the compound `C[C@H](N1Cc2cc(-c3ccn4nc(N)c(C(=O)N[C@@H](CO)C5CC5)c4n3)cc(OC(F)F)c2C1=O)C(F)(F)F`, the IC50 (in general, the concentration needed to halve the response being measured) amounted to 68 nM.

As for `C[C@H](N1Cc2cc(-c3ccn4nc(N)c(C(=O)N[C@@H](CO)C5CC5)c4n3)cc(Cl)c2C1=O)C(F)(F)F`, the IC50 was 83 nM.

As for `C[C@H](N1Cc2cc(-c3ccn4nc(N)c(C(=O)N[C@@H](CO)C5CC5)c4n3)cc(C3CC3)c2C1=O)C(F)(F)F`, the IC50 was found to be 80 nM.

For `C[C@H](N1Cc2cc(-c3ccn4nc(N)c(C(=O)N[C@H]5CC[C@@](C)(O)CC5)c4n3)cc(NS(C)(=O)=O)c2C1=O)C(F)(F)F`, the IC50 was found to be 31 nM.

A further data set has as its target T1, Phosphatidylinositol 4,5-bisphosphate 3-kinase catalytic subunit gamma isoform. Put plainly: Inhibition of PI3Kgamma (unknown origin) using PIP2 as substrate preincubated for 1 hr followed by substrate addition and measured after 60 mins in presence of ATP by ADP-glo assay.
Settings: not given
In the case of `C[C@H](N1Cc2cc(-c3ccn4nc(N)c(C(=O)N[C@@H](CO)C5CC5)c4n3)cc(OC(F)F)c2C1=O)C(F)(F)F`, the IC50 was 3.4 nM.

For the compound `C[C@H](N1Cc2cc(-c3ccn4nc(N)c(C(=O)N[C@@H](CO)C5CC5)c4n3)cc(Cl)c2C1=O)C(F)(F)F`, the IC50 came out at 3.1 nM.

Consider `C[C@H](N1Cc2cc(-c3ccn4nc(N)c(C(=O)N[C@@H](CO)C5CC5)c4n3)cc(C3CC3)c2C1=O)C(F)(F)F`, for which the IC50 was 2.5 nM.

As to `C[C@H](N1Cc2cc(-c3ccn4nc(N)c(C(=O)N[C@H]5CC[C@@](C)(O)CC5)c4n3)cc(NS(C)(=O)=O)c2C1=O)C(F)(F)F`, the IC50 stood at 3.2 nM.

Tested on in another data set: not listed separately
The data set can be described thus: Metabolic stability in human hepatocytes assessed as intrinsic clearance per 10^6 cells at 0.5 uM by LC-MS/MS analysis. Format: ADME, cell-based, Hepatocyte. Particulars: read-out: CLH.
In the case of `C[C@H](N1Cc2cc(-c3ccn4nc(N)c(C(=O)N[C@@H](CO)C5CC5)c4n3)cc(OC(F)F)c2C1=O)C(F)(F)F`, the hepatocyte CLint at 0.5 µM is 7.17 µL/min/1e6 cells.

For `C[C@H](N1Cc2cc(-c3ccn4nc(N)c(C(=O)N[C@@H](CO)C5CC5)c4n3)cc(Cl)c2C1=O)C(F)(F)F`, the hepatocyte CLint at 0.5 µM was determined as 3.18 µL/min/1e6 cells.

For the compound `C[C@H](N1Cc2cc(-c3ccn4nc(N)c(C(=O)N[C@@H](CO)C5CC5)c4n3)cc(C3CC3)c2C1=O)C(F)(F)F`, the hepatocyte CLint at 0.5 µM was found to be 13.3 µL/min/1e6 cells.

`C[C@H](N1Cc2cc(-c3ccn4nc(N)c(C(=O)N[C@H]5CC[C@@](C)(O)CC5)c4n3)cc(NS(C)(=O)=O)c2C1=O)C(F)(F)F`: the hepatocyte CLint at 0.5 µM stood at 2.44 µL/min/1e6 cells.

Tested on in a further data set: not listed separately
Put plainly: Metabolic stability in rat hepatocyte assessed as intrinsic clearance per 10^8 cells at 0.5 uM by LC-MS/MS analysis. In kind it is ADME, cell-based. Particulars: hepatocytes.
On to `C[C@H](N1Cc2cc(-c3ccn4nc(N)c(C(=O)N[C@@H](CO)C5CC5)c4n3)cc(OC(F)F)c2C1=O)C(F)(F)F`, for which the hepatocyte intrinsic clearance was determined as 8.28 µL/min.

With `C[C@H](N1Cc2cc(-c3ccn4nc(N)c(C(=O)N[C@@H](CO)C5CC5)c4n3)cc(Cl)c2C1=O)C(F)(F)F`, the hepatocyte intrinsic clearance is 2.98 µL/min.

`C[C@H](N1Cc2cc(-c3ccn4nc(N)c(C(=O)N[C@@H](CO)C5CC5)c4n3)cc(C3CC3)c2C1=O)C(F)(F)F`: the hepatocyte intrinsic clearance stood at 1.69 µL/min.

For `C[C@H](N1Cc2cc(-c3ccn4nc(N)c(C(=O)N[C@H]5CC[C@@](C)(O)CC5)c4n3)cc(NS(C)(=O)=O)c2C1=O)C(F)(F)F`, the hepatocyte intrinsic clearance was determined as 3.38 µL/min.

Another data set addresses T1, Phosphatidylinositol 4,5-bisphosphate 3-kinase catalytic subunit gamma isoform. Put plainly: Inhibition of PI3Kgamma in SDF-1alpha stimulated human whole blood assessed as reduction in phospho-AKT kinase activity preincubated for 1 hr followed by SDF-1alpha stimulation and measured after 2 mins by flow cytometric analysis. Format: tissue-based.
Settings: not given
With `C[C@H](N1Cc2cc(-c3ccn4nc(N)c(C(=O)N[C@@H](CO)C5CC5)c4n3)cc(OC(F)F)c2C1=O)C(F)(F)F`, the IC50 was determined as 600 nM.

`C[C@H](N1Cc2cc(-c3ccn4nc(N)c(C(=O)N[C@@H](CO)C5CC5)c4n3)cc(Cl)c2C1=O)C(F)(F)F`: the IC50 stood at 600 nM.

As for `C[C@H](N1Cc2cc(-c3ccn4nc(N)c(C(=O)N[C@@H](CO)C5CC5)c4n3)cc(C3CC3)c2C1=O)C(F)(F)F`, the half-maximal inhibitory concentration (IC50) amounted to 1300 nM.

For `C[C@H](N1Cc2cc(-c3ccn4nc(N)c(C(=O)N[C@H]5CC[C@@](C)(O)CC5)c4n3)cc(NS(C)(=O)=O)c2C1=O)C(F)(F)F`, the half-maximal inhibitory concentration (IC50) stood at 800 nM.

The next data set deals with Phosphatidylinositol 4,5-bisphosphate 3-kinase catalytic subunit alpha isoform (Homo sapiens, UniProt P42336). The data set can be described thus: Inhibition of PI3Kalpha (unknown origin) using PIP2 as substrate preincubated for 1 hr followed by substrate addition and measured after 60 mins in presence of ATP by ADP-glo assay.
Phosphatidylinositol 4,5-bisphosphate 3-kinase catalytic subunit alpha isoform, sequence (P42336 whole entry, canonical isoform): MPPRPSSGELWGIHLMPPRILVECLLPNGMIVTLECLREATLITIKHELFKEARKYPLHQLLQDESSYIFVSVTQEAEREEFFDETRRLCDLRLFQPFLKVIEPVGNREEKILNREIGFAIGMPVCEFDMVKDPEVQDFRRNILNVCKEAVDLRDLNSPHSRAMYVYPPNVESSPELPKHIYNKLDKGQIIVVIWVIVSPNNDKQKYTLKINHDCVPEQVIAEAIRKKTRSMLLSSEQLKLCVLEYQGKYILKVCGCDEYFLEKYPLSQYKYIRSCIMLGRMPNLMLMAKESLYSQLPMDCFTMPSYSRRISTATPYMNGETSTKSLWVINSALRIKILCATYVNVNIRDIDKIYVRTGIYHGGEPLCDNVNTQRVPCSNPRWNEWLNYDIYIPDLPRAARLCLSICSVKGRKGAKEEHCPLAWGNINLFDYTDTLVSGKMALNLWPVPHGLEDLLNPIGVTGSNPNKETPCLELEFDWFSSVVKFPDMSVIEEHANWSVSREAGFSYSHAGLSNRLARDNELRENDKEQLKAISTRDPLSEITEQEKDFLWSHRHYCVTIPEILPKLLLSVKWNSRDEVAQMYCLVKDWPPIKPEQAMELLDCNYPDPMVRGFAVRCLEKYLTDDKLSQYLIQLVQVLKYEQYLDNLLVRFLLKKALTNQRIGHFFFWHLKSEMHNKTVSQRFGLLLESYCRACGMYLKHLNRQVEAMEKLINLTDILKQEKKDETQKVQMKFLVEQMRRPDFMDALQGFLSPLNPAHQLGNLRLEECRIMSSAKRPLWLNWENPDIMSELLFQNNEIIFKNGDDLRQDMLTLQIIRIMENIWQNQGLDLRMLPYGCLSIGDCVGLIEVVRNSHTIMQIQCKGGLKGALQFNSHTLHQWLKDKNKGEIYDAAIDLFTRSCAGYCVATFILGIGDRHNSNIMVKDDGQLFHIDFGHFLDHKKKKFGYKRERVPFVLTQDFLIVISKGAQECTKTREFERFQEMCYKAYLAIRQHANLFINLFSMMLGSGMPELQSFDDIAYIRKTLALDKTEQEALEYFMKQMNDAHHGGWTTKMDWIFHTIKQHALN
Settings: not given
As to `C[C@H](N1Cc2cc(-c3ccn4nc(N)c(C(=O)N[C@@H](CO)C5CC5)c4n3)cc(OC(F)F)c2C1=O)C(F)(F)F`, the IC50 was 1320 nM.

`C[C@H](N1Cc2cc(-c3ccn4nc(N)c(C(=O)N[C@@H](CO)C5CC5)c4n3)cc(Cl)c2C1=O)C(F)(F)F`: the IC50 was above 10000 nM.

`C[C@H](N1Cc2cc(-c3ccn4nc(N)c(C(=O)N[C@@H](CO)C5CC5)c4n3)cc(C3CC3)c2C1=O)C(F)(F)F`: the half-maximal inhibitory concentration (IC50) was above 10000 nM.

Consider `C[C@H](N1Cc2cc(-c3ccn4nc(N)c(C(=O)N[C@H]5CC[C@@](C)(O)CC5)c4n3)cc(NS(C)(=O)=O)c2C1=O)C(F)(F)F`, for which the 50% inhibitory concentration (IC50) was 194 nM.

The target in the next data set is T2, Phosphatidylinositol 4,5-bisphosphate 3-kinase catalytic subunit delta isoform (Homo sapiens, UniProt O00329).
T2 sequence (O00329 whole entry): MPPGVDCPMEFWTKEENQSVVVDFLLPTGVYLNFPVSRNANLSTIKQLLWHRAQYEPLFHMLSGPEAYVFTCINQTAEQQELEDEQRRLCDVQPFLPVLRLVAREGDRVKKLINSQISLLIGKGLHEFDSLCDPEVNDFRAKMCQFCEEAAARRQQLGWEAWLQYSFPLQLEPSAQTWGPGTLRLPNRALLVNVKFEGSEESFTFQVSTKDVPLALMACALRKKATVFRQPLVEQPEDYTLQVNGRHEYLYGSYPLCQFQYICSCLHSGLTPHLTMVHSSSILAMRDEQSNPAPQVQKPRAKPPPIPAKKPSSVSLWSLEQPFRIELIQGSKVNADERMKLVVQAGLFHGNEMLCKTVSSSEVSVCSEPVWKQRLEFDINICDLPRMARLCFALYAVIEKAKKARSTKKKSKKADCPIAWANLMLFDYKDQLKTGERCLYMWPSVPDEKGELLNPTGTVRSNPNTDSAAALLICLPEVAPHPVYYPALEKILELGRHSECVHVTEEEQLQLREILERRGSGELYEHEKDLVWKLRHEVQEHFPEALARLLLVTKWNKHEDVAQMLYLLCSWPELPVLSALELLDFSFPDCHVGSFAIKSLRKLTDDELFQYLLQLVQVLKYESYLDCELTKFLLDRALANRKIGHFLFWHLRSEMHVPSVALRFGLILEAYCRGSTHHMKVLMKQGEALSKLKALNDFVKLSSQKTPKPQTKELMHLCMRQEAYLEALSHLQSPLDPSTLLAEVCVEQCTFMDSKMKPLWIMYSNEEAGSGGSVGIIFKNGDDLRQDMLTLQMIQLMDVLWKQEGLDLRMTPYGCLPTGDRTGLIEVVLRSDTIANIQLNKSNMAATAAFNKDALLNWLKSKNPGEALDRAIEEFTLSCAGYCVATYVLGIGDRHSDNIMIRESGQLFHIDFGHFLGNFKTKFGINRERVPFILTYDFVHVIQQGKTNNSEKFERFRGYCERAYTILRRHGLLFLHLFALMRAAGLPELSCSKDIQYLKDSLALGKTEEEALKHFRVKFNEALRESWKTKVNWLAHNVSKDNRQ
The data set can be described thus: Inhibition of PI3Kdelta (unknown origin) using PIP2 as substrate preincubated for 1 hr followed by substrate addition and measured after 60 mins in presence of ATP by ADP-glo assay.
Settings: not given
As for `C[C@H](N1Cc2cc(-c3ccn4nc(N)c(C(=O)N[C@@H](CO)C5CC5)c4n3)cc(OC(F)F)c2C1=O)C(F)(F)F`, the IC50 turned out to be 419 nM.

Turning to `C[C@H](N1Cc2cc(-c3ccn4nc(N)c(C(=O)N[C@@H](CO)C5CC5)c4n3)cc(Cl)c2C1=O)C(F)(F)F`, the half-inhibitory concentration (IC50) came to 4640 nM.

Consider `C[C@H](N1Cc2cc(-c3ccn4nc(N)c(C(=O)N[C@@H](CO)C5CC5)c4n3)cc(C3CC3)c2C1=O)C(F)(F)F`, for which the 50% inhibitory concentration (IC50) was found to be 3980 nM.

On to `C[C@H](N1Cc2cc(-c3ccn4nc(N)c(C(=O)N[C@H]5CC[C@@](C)(O)CC5)c4n3)cc(NS(C)(=O)=O)c2C1=O)C(F)(F)F`, for which the IC50 stood at 146 nM.

The species entered for another data set is Homo sapiens. Put plainly: Selectivity ratio of IC50 for inhibition of PI3Kalpha (unknown origin) to IC50 for inhibition of PI3Kgamma (unknown origin).
Settings: not given
Regarding `C[C@H](N1Cc2cc(-c3ccn4nc(N)c(C(=O)N[C@@H](CO)C5CC5)c4n3)cc(OC(F)F)c2C1=O)C(F)(F)F`, the Ratio IC50 is 385.

On to `C[C@H](N1Cc2cc(-c3ccn4nc(N)c(C(=O)N[C@@H](CO)C5CC5)c4n3)cc(Cl)c2C1=O)C(F)(F)F`, for which the Ratio IC50 is above 3140.

Turning to `C[C@H](N1Cc2cc(-c3ccn4nc(N)c(C(=O)N[C@@H](CO)C5CC5)c4n3)cc(C3CC3)c2C1=O)C(F)(F)F`, the Ratio IC50 was above 3970.

As for `C[C@H](N1Cc2cc(-c3ccn4nc(N)c(C(=O)N[C@H]5CC[C@@](C)(O)CC5)c4n3)cc(NS(C)(=O)=O)c2C1=O)C(F)(F)F`, the Ratio IC50 worked out at 61.

The next data set is filed under the species Homo sapiens. The data set can be described thus: Selectivity ratio of IC50 for inhibition of PI3Kdelta (unknown origin) to IC50 for inhibition of PI3Kgamma (unknown origin).
Settings: not given
Take `C[C@H](N1Cc2cc(-c3ccn4nc(N)c(C(=O)N[C@@H](CO)C5CC5)c4n3)cc(OC(F)F)c2C1=O)C(F)(F)F`: the Ratio IC50 was 122.

Take `C[C@H](N1Cc2cc(-c3ccn4nc(N)c(C(=O)N[C@@H](CO)C5CC5)c4n3)cc(Cl)c2C1=O)C(F)(F)F`: the Ratio IC50 was found to be 1460.

For the compound `C[C@H](N1Cc2cc(-c3ccn4nc(N)c(C(=O)N[C@@H](CO)C5CC5)c4n3)cc(C3CC3)c2C1=O)C(F)(F)F`, the Ratio IC50 is 1580.

In the case of `C[C@H](N1Cc2cc(-c3ccn4nc(N)c(C(=O)N[C@H]5CC[C@@](C)(O)CC5)c4n3)cc(NS(C)(=O)=O)c2C1=O)C(F)(F)F`, the Ratio IC50 is 46.
